Measured values reported in PubChem BioAssay AID1259407 (Chemical Carcinogenesis Research Information System (CCRIS), 2018).
Activity calls are given as the source filed them. How the calls were made is not given here.

Tested on: CCRIS mutagenicity, Ames/micronucleus/aberration tests
Assay: CCRIS mutagenicity studies

Measured: mutagenic call

CS(C)=O
inactive: End Point: IN VITRO CHROMOSOMAL ABERRATIONS, Test System: CHO-LB CELLS, Metabolic Activation: NONE inactive; negative | End Point: IN VITRO CHROMOSOMAL ABERRATIONS, Test System: CHO-LB CELLS, Metabolic Activation: RAT, LIVER, S-9, AROCLOR 1254 inactive; negative | Test System: AMES SALMONELLA TYPHIMURIUM, Strain/Indicator: TA97, Metabolic Activation: HAMSTER, LIVER, S-9, AROCLOR 1254 (10 OR 30%), Method: PREINCUBATION inactive; negative | Test System: AMES SALMONELLA TYPHIMURIUM, Strain/Indicator: TA97, Metabolic Activation: NONE, Method: PREINCUBATION inactive; negative | Test System: AMES SALMONELLA TYPHIMURIUM, Strain/Indicator: TA97, Metabolic Activation: NONE, Method: PREINCUBATION (20 MIN) inactive; negative | Test System: AMES SALMONELLA TYPHIMURIUM, Strain/Indicator: TA97, Metabolic Activation: NONE, Method: STANDARD PLATE inactive; negative | Test System: AMES SALMONELLA TYPHIMURIUM, Strain/Indicator: TA97, Metabolic Activation: RAT, LIVER, S-9, AROCLOR 1254 (10 OR 30%), Method: PREINCUBATION inactive; negative | Test System: AMES SALMONELLA TYPHIMURIUM, Strain/Indicator: TA97, Metabolic Activation: RAT, LIVER, S-9, AROCLOR 1254, Method: STANDARD PLATE inactive; negative | Test System: AMES SALMONELLA TYPHIMURIUM, Strain/Indicator: TA97, Metabolic Activation: RAT, LIVER, S-9, PHENOBARBITAL AND 5,6-BENZOFLAVONE, Method: PREINCUBATION (20 MIN) inactive; negative | Test System: AMES SALMONELLA TYPHIMURIUM, Strain/Indicator: TA98, Metabolic Activation: HAMSTER, LIVER, S-9, AROCLOR 1254 (10 OR 30%), Method: PREINCUBATION inactive; negative | Test System: AMES SALMONELLA TYPHIMURIUM, Strain/Indicator: TA98, Metabolic Activation: NONE, Method: FLUCTUATION (MICROTITER) inactive; negative | Test System: AMES SALMONELLA TYPHIMURIUM, Strain/Indicator: TA98, Metabolic Activation: NONE, Method: PREINCUBATION inactive; negative | Test System: AMES SALMONELLA TYPHIMURIUM, Strain/Indicator: TA98, Metabolic Activation: NONE, Method: PREINCUBATION (20 MIN) inactive; negative | Test System: AMES SALMONELLA TYPHIMURIUM, Strain/Indicator: TA98, Metabolic Activation: NONE, Method: STANDARD PLATE inactive; negative | Test System: AMES SALMONELLA TYPHIMURIUM, Strain/Indicator: TA98, Metabolic Activation: RAT LIVER S-9, AROCLOR 1254, Method: FLUCTUATION (MICROTITER) inactive; negative | Test System: AMES SALMONELLA TYPHIMURIUM, Strain/Indicator: TA98, Metabolic Activation: RAT, LIVER, S-9, AROCLOR 1254 (10 OR 30%), Method: PREINCUBATION inactive; negative | Test System: AMES SALMONELLA TYPHIMURIUM, Strain/Indicator: TA98, Metabolic Activation: RAT, LIVER, S-9, AROCLOR 1254, Method: STANDARD PLATE inactive; negative | Test System: AMES SALMONELLA TYPHIMURIUM, Strain/Indicator: TA98, Metabolic Activation: RAT, LIVER, S-9, PHENOBARBITAL AND 5,6-BENZOFLAVONE, Method: PREINCUBATION (20 MIN) inactive; negative | Test System: AMES SALMONELLA TYPHIMURIUM, Strain/Indicator: TA100, Metabolic Activation: HAMSTER, LIVER, S-9, AROCLOR 1254 (10 OR 30%), Method: PREINCUBATION inactive; negative | Test System: AMES SALMONELLA TYPHIMURIUM, Strain/Indicator: TA100, Metabolic Activation: NONE, Method: PREINCUBATION inactive; negative | Test System: AMES SALMONELLA TYPHIMURIUM, Strain/Indicator: TA100, Metabolic Activation: NONE, Method: PREINCUBATION (20 MIN) inactive; negative | Test System: AMES SALMONELLA TYPHIMURIUM, Strain/Indicator: TA100, Metabolic Activation: NONE, Method: STANDARD PLATE inactive; negative | Test System: AMES SALMONELLA TYPHIMURIUM, Strain/Indicator: TA100, Metabolic Activation: RAT, LIVER, S-9, AROCLOR 1254 (10 OR 30%), Method: PREINCUBATION inactive; negative | Test System: AMES SALMONELLA TYPHIMURIUM, Strain/Indicator: TA100, Metabolic Activation: RAT, LIVER, S-9, AROCLOR 1254, Method: STANDARD PLATE inactive; negative | Test System: AMES SALMONELLA TYPHIMURIUM, Strain/Indicator: TA100, Metabolic Activation: RAT, LIVER, S-9, PHENOBARBITAL AND 5,6-BENZOFLAVONE, Method: PREINCUBATION (20 MIN) inactive; negative | Test System: AMES SALMONELLA TYPHIMURIUM, Strain/Indicator: TA102, Metabolic Activation: NONE, Method: PREINCUBATION (20 MIN) inactive; negative | Test System: AMES SALMONELLA TYPHIMURIUM, Strain/Indicator: TA102, Metabolic Activation: RAT, LIVER, S-9, PHENOBARBITAL AND 5,6-BENZOFLAVONE, Method: PREINCUBATION (20 MIN) inactive; negative | Test System: AMES SALMONELLA TYPHIMURIUM, Strain/Indicator: TA104, Metabolic Activation: NONE, Method: PREINCUBATION (20 MIN) inactive; negative | Test System: AMES SALMONELLA TYPHIMURIUM, Strain/Indicator: TA104, Metabolic Activation: RAT, LIVER, S-9, PHENOBARBITAL AND 5,6-BENZOFLAVONE, Method: PREINCUBATION (20 MIN) inactive; negative | Test System: AMES SALMONELLA TYPHIMURIUM, Strain/Indicator: TA1535, Metabolic Activation: HAMSTER, LIVER, S-9, AROCLOR 1254 (10 OR 30%), Method: PREINCUBATION inactive; negative | Test System: AMES SALMONELLA TYPHIMURIUM, Strain/Indicator: TA1535, Metabolic Activation: NONE, Method: PREINCUBATION inactive; negative | Test System: AMES SALMONELLA TYPHIMURIUM, Strain/Indicator: TA1535, Metabolic Activation: NONE, Method: PREINCUBATION (20 MIN) inactive; negative
